Results as given in PubChem BioAssay AID1845205 (Molecular Pharmacology Branch, DTP, NCI, 2023).
pIC50: −log10 of the molar value.

System: MPNST multicellular tumor spheroids, viability % test/control
Assay: Anticancer human tumor MPNST cell line growth inhibition;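 also: spheroids exposed to agents for seven days after three days of growth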;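 as to viability, T/C: luminescence signal used as surrogate for viable cell amount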
Conditions: for pIC50: curve of first compound; for viability, T/C: stronger effect = lower value
Method in brief: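 Complex spheroids of malignant cells with endothelial cells and mesenchymal stem cells; agents alone or combined, from near clinical Cmax (or 10 microM if unknown) down in half-log steps, 0.25% DMSO final.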

[1] = second compound 30 pM, first compound 0.0316 µM
[2] = second compound 30 pM, first compound 0.1 µM
[3] = second compound 30 pM, first compound 0.316 µM
[4] = second compound 30 pM, first compound 1 µM
[5] = second compound 30 pM, first compound 3.16 µM
[6] = second compound 30 pM, first compound 10 µM
[7] = second compound 94.9 pM, first compound 0.0316 µM
[8] = second compound 94.9 pM, first compound 0.1 µM
[9] = second compound 94.9 pM, first compound 0.316 µM
[10] = second compound 94.9 pM, first compound 1 µM
[11] = second compound 94.9 pM, first compound 3.16 µM
[12] = second compound 94.9 pM, first compound 10 µM
[13] = second compound 0.0003 µM, first compound 0.0316 µM
[14] = second compound 0.0003 µM, first compound 0.1 µM
[15] = second compound 0.0003 µM, first compound 0.316 µM
[16] = second compound 0.0003 µM, first compound 1 µM
[17] = second compound 0.0003 µM, first compound 3.16 µM
[18] = second compound 0.0003 µM, first compound 10 µM
[19] = second compound 0.000949 µM, first compound 0.0316 µM
[20] = second compound 0.000949 µM, first compound 0.1 µM
[21] = second compound 0.000949 µM, first compound 0.316 µM
[22] = second compound 0.000949 µM, first compound 1 µM
[23] = second compound 0.000949 µM, first compound 3.16 µM
[24] = second compound 0.000949 µM, first compound 10 µM
[25] = second compound 0.003 µM, first compound 0.0316 µM
[26] = second compound 0.003 µM, first compound 0.1 µM
[27] = second compound 0.003 µM, first compound 0.316 µM
[28] = second compound 0.003 µM, first compound 1 µM
[29] = second compound 0.003 µM, first compound 3.16 µM
[30] = second compound 0.003 µM, first compound 10 µM

**Q.** How did the pIC50 (second compound 30 pM) turn out when `Cc1cc(C)c(CNC(=O)c2cc(-c3ccc(CN4CCOCC4)cc3)cc3c2cnn3C2CCCC2)c(=O)[nH]1` + COc1cc2c(cc1O)CCNC21CSC2c3c(OC(C)=O)c(C)c4c(c3C(COC1=O)N1C(O)C3Cc5cc(C)c(OC)c(O)c5C(C21)N3C)OCO4 was run?
**A.** The pIC50 was < 5.00.

**Q.** What about the pIC50 (second compound 94.9 pM) of the same compound?
**A.** Its pIC50 is < 5.00.

**Q.** What about the pIC50 (second compound 0.0003 µM) of the same compound?
**A.** The pIC50 was < 5.00.

**Q.** What about the pIC50 (second compound 0.000949 µM) of the same compound?
**A.** Its pIC50 is > 7.50.

**Q.** What about the pIC50 (second compound 0.003 µM) of the same compound?
**A.** The pIC50 was > 7.50.

**Q.** What about the viability, T/C [1] of the same compound?
**A.** The viability, T/C was 106%.

**Q.** And the viability, T/C [2]?
**A.** The viability, T/C was 93.7%.

**Q.** What about the viability, T/C [3] of the same compound?
**A.** Its viability, T/C is 85.2%.

**Q.** And the viability, T/C [4]?
**A.** The viability, T/C was 101%.

**Q.** And the viability, T/C [5]?
**A.** The viability, T/C was 113%.

**Q.** And the viability, T/C [6]?
**A.** The viability, T/C was 99.3%.

**Q.** What about the viability, T/C [7] of the same compound?
**A.** The viability, T/C was 104%.

**Q.** What about the viability, T/C [8] of the same compound?
**A.** Its viability, T/C is 89.8%.

**Q.** What about the viability, T/C [9] of the same compound?
**A.** The viability, T/C was 71%.

**Q.** What about the viability, T/C [10] of the same compound?
**A.** The viability, T/C was 102%.

**Q.** And the viability, T/C [11]?
**A.** Its viability, T/C is 120%.

**Q.** And the viability, T/C [12]?
**A.** Its viability, T/C is 68.9%.

**Q.** And the viability, T/C [13]?
**A.** Its viability, T/C is 86%.

**Q.** And the viability, T/C [14]?
**A.** The viability, T/C was 80.3%.

**Q.** What about the viability, T/C [15] of the same compound?
**A.** The viability, T/C was 83.3%.

**Q.** And the viability, T/C [16]?
**A.** Its viability, T/C is 98%.

**Q.** And the viability, T/C [17]?
**A.** The viability, T/C was 91.4%.

**Q.** What about the viability, T/C [18] of the same compound?
**A.** The viability, T/C was 70.7%.

**Q.** And the viability, T/C [19]?
**A.** The viability, T/C was 41.3%.

**Q.** What about the viability, T/C [20] of the same compound?
**A.** The viability, T/C was 53.5%.

**Q.** And the viability, T/C [21]?
**A.** The viability, T/C was 46%.

**Q.** And the viability, T/C [22]?
**A.** Its viability, T/C is 43.6%.

**Q.** What about the viability, T/C [23] of the same compound?
**A.** Its viability, T/C is 44.3%.

**Q.** And the viability, T/C [24]?
**A.** Its viability, T/C is 41.6%.

**Q.** What about the viability, T/C [25] of the same compound?
**A.** The viability, T/C was 13.1%.

**Q.** What about the viability, T/C [26] of the same compound?
**A.** The viability, T/C was 12.2%.

**Q.** What about the viability, T/C [27] of the same compound?
**A.** Its viability, T/C is 12.1%.

**Q.** What about the viability, T/C [28] of the same compound?
**A.** Its viability, T/C is 13.5%.

**Q.** And the viability, T/C [29]?
**A.** Its viability, T/C is 12.6%.

**Q.** What about the viability, T/C [30] of the same compound?
**A.** Its viability, T/C is 9.87%.

**Q.** What does the source list for `Cc1sc2c(c1C)C(c1ccc(Cl)cc1)=NC(CC(=O)Nc1ccc(O)cc1)c1nnc(C)n1-2` (stereo not given) + COc1cc2c(cc1O)CCNC21CSC2c3c(OC(C)=O)c(C)c4c(c3C(COC1=O)N1C(O)C3Cc5cc(C)c(OC)c(O)c5C(C21)N3C)OCO4?
**A.** pIC50 (second compound 30 pM): 6.66; pIC50 (second compound 94.9 pM): 6.81; pIC50 (second compound 0.0003 µM): 7.23; pIC50 (second compound 0.000949 µM): > 8.02; pIC50 (second compound 0.003 µM): > 8.02; viability, T/C (second compound 30 pM, first compound 0.00949 µM): 86.9%; viability, T/C (second compound 30 pM, first compound 0.03 µM): 71%; viability, T/C (second compound 30 pM, first compound 0.0949 µM): 85.7%; viability, T/C (second compound 30 pM, first compound 0.3 µM): 38.2%; viability, T/C (second compound 30 pM, first compound 0.949 µM): 26.3%; viability, T/C (second compound 30 pM, first compound 3 µM): 24%; viability, T/C (second compound 94.9 pM, first compound 0.00949 µM): 62.5%; viability, T/C (second compound 94.9 pM, first compound 0.03 µM): 70.3%; viability, T/C (second compound 94.9 pM, first compound 0.0949 µM): 56.6%; viability, T/C (second compound 94.9 pM, first compound 0.3 µM): 39.3%; viability, T/C (second compound 94.9 pM, first compound 0.949 µM): 27.9%; viability, T/C (second compound 94.9 pM, first compound 3 µM): 23.9%; viability, T/C (second compound 0.0003 µM, first compound 0.00949 µM): 59.6%; viability, T/C (second compound 0.0003 µM, first compound 0.03 µM): 53.3%; viability, T/C (second compound 0.0003 µM, first compound 0.0949 µM): 47.5%; viability, T/C (second compound 0.0003 µM, first compound 0.3 µM): 36.3%; viability, T/C (second compound 0.0003 µM, first compound 0.949 µM): 26.6%; viability, T/C (second compound 0.0003 µM, first compound 3 µM): 22.4%; viability, T/C (second compound 0.000949 µM, first compound 0.00949 µM): 31%; viability, T/C (second compound 0.000949 µM, first compound 0.03 µM): 29.7%; viability, T/C (second compound 0.000949 µM, first compound 0.0949 µM): 27.4%; viability, T/C (second compound 0.000949 µM, first compound 0.3 µM): 21.6%; viability, T/C (second compound 0.000949 µM, first compound 0.949 µM): 12.7%; viability, T/C (second compound 0.000949 µM, first compound 3 µM): 14.8%; viability, T/C (second compound 0.003 µM, first compound 0.00949 µM): 6.19%; viability, T/C (second compound 0.003 µM, first compound 0.03 µM): 4.21%; viability, T/C (second compound 0.003 µM, first compound 0.0949 µM): 4.96%; viability, T/C (second compound 0.003 µM, first compound 0.3 µM): 1.41%; viability, T/C (second compound 0.003 µM, first compound 0.949 µM): 2.26%; viability, T/C (second compound 0.003 µM, first compound 3 µM): 1.94%

**Q.** What does the source list for `[2H]c1nc(C)nc([2H])c1-c1cc(NC[C@@H](C)c2cccc3c(C(=O)NC)ccnc23)ncn1` + COc1cc2c(cc1O)CCNC21CSC2c3c(OC(C)=O)c(C)c4c(c3C(COC1=O)N1C(O)C3Cc5cc(C)c(OC)c(O)c5C(C21)N3C)OCO4?
**A.** pIC50 (second compound 30 pM): < 5.00; pIC50 (second compound 94.9 pM): < 5.00; pIC50 (second compound 0.0003 µM): < 5.00; pIC50 (second compound 0.000949 µM): > 7.50; pIC50 (second compound 0.003 µM): > 7.50; viability, T/C [1]: 83.5%; viability, T/C [2]: 71.4%; viability, T/C [3]: 73.3%; viability, T/C [4]: 97.6%; viability, T/C [5]: 72.7%; viability, T/C [6]: 88.1%; viability, T/C [7]: 94.4%; viability, T/C [8]: 83%; viability, T/C [9]: 81.6%; viability, T/C [10]: 103%; viability, T/C [11]: 99.9%; viability, T/C [12]: 78.3%; viability, T/C [13]: 78%; viability, T/C [14]: 75.8%; viability, T/C [15]: 72.5%; viability, T/C [16]: 95.7%; viability, T/C [17]: 75.8%; viability, T/C [18]: 87%; viability, T/C [19]: 48.4%; viability, T/C [20]: 40.6%; viability, T/C [21]: 42.7%; viability, T/C [22]: 43.1%; viability, T/C [23]: 42.3%; viability, T/C [24]: 42.9%; viability, T/C [25]: 9.53%; viability, T/C [26]: 12.7%; viability, T/C [27]: 8.26%; viability, T/C [28]: 12.5%; viability, T/C [29]: 9.06%; viability, T/C [30]: 8.35%
